This note sets out measurements from patent US20240390298A1, “CYCLOHEXYL BETA-HYDROXY ALKYL AMINES AND MEDICAL USES THEREOF” (ATROGI AB, priority 2021, published 2024).

Structures can show the parent of a compound that is named as a salt.

What all share (format): cell-based
The test system of test [1] is L6-myotubes. Nature of the test: Glucose uptake in differentiated L6-myotubes (3H-2-deoxyglucose), compared to isoproterenol. Particulars: agonist 1×10^−5 M, 50 nM 3H-2-deoxyglucose; for Emax at 10 µM: read-out: Biological example 1: glucose uptake, activity compared to that of isoproterenol. Summed up: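 Serum-starved differentiated L6 myotubes stimulated with agonist at 1×10^−5 M for 1 h 40 min, re-dosed in glucose-free medium for 20 min, then given 50 nM ^3H-2-deoxyglucose for 10 min. Uptake read by β-counting of NaOH lysates; activity expressed relative to isoproterenol.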

Test [2] has as its system L6-myotubes. Nature of the test: Glucose uptake in L6-myotubes in the presence of the β2-antagonist ICI-118,551. Particulars: differentiated L6-myotubes; compound 1×10^−5 M; ICI-118,551 1×10^−5 M. As for the experimental part:
L6-myoblasts were grown in Dulbecco's Modified Eagle's Medium (DMEM) containing 1 g/L glucose supplemented with 10% fetal bovine serum, 2 mM L-Glutamine, 50 U/mL penicillin, 50 μg/mL streptomycin and 10 mM HEPES. Cells were plated at 1×10^5 cells per mL in 24-well plates. After reaching 90% confluence the cells were grown in medium containing 2% FBS for 7 days where upon cells differentiated into myotubes.
Differentiated L6-myotubes were serum-starved overnight in medium containing 0.5% fatty-acid free BSA and were incubated with the β2-adrenergic receptor antagonist ICI-118,551 at a final concentration of 1×10^−5 M for 30 min. The cells were stimulated with a compound of the invention, at a final concentration of 1×10^−5 M. After 1 h 40 min the cells were washed twice with warm, glucose free medium or PBS and additional portions of the compound of the invention and the antagonist were added. After 20 min the cells were exposed to 50 nM ^3H-2-deoxyglucose for 10 min before washed with ice cold glucose free medium or PBS three times and lysed with 0.2 M NaOH, 400 μL/well, for 1 h at 60° C. The cell lysate was mixed with 4 mL scintillation buffer (Emulsifier Safe, Perkin Elmer) and the radioactivity was detected in a β-counter (Tri-Carb 4810TR, Perkin Elmer). The activity for each compound is compared to that of isoproterenol.

For test [3], the system named is L6-myotubes. The experiment in a line: Measurement of intracellular cAMP levels in differentiated L6 cells (alpha screen cAMP kit), compared to isoproterenol. To be noted: Rattus norvegicus, L6, 0.25 h, agonist 1×10^−5 M, 15 min, read-out: Biological example 2: intracellular cAMP levels, activity compared to that of isoproterenol. Summed up: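 L6 myoblasts were differentiated into myotubes over 7 days in 2% FBS, then serum-starved overnight. Agonist at 1×10^−5 M final was applied for 15 min in HBSS with 1% BSA, 5 mM HEPES and 1 mM IBMX, pH 7.4. After ethanol extraction and lysis, cAMP was quantified by AlphaScreen, with activity expressed relative to isoproterenol.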
(In general: Cyclic AMP is a second messenger, typically raised through Gs and lowered through Gi signalling.)

On to `COC(=O)[C@H]1CC[C@H](CCC(C)(C)NC[C@H](O)c2cncc(F)c2)CC1` [Example 116, Methyl (1R,4r)-4-(3-(((R)-2-(5-fluoropyridin-3-yl)-2-hydroxyethyl)amino)-3-methylbutyl)cyclohexane-1-carboxylate], for which, in test [1], the “Biological example 1: glucose uptake, activity compared to that of isoproterenol” value is recorded as “+ + +”. The “Biological example 3: glucose uptake in the presence of the β2-antagonist ICI-118,551, activity compared to that of isoproterenol” value in test [2] is on record as “− (less than 25%)”. In addition, the Emax at 10 µM in test [3] is less than 25%.
For `COC(=O)[C@H]1CC[C@@H](CCC(C)(C)NC[C@H](O)c2cncc(F)c2)CC1` [Example 112, Methyl (1S,4s)-4-(3-(((R)-2-(5-fluoropyridin-3-yl)-2-hydroxyethyl)amino)-3-methylbutyl)cyclohexane-1-carboxylate], the “Biological example 1: glucose uptake, activity compared to that of isoproterenol” value in test [1] is given as “+ + +”. In test [2], the “Biological example 3: glucose uptake in the presence of the β2-antagonist ICI-118,551, activity compared to that of isoproterenol” value is recorded as “− (less than 25%)”. In test [3], the Emax at 10 µM was in the range of 25 to 50%.
For `CC(C)(C[C@H]1CC[C@H](N)CC1)NC[C@H](O)c1cncc(F)c1` [Example 85, (R)-2-((1-((1r,4R)-4-Aminocyclohexyl)-2-methylpropan-2-yl)amino)-1-(5-fluoropyridin-3-yl)ethan-1-ol] the same measures were “+ + +”, “− (less than 25%)” and less than 25%.
Taken in the same sequence, the figures for `COC(=O)[C@H]1CC[C@H](CC(C)(C)NC[C@H](O)c2cccc(F)c2)CC1` [Example 107, Methyl (1R,4r)-4-(2-(((R)-2-(3-Fluorophenyl)-2-hydroxyethyl)amino)-2-methylpropyl)cyclohexane-1-carboxylate] were “+ + +”, “− (less than 25%)” and less than 25%.
As to `CC(C)(C[C@H]1CC[C@@H](NC(=O)C2CCC2)CC1)NC[C@H](O)c1cccc(F)c1` [Example 167, N-((1S,4s)-4-(2-(((R)-2-(3-Fluorophenyl)-2-hydroxyethyl)amino)-2-methylpropyl)cyclohexyl)cyclobutanecarboxamide hydrochloride], in test [1], the “Biological example 1: glucose uptake, activity compared to that of isoproterenol” value is recorded as “+ +”. Besides, the Emax at 10 µM in test [3] is less than 25%.
As for `CC(C)(NC[C@H](O)c1cncc(F)c1)[C@H]1CC[C@H](OCc2ccccc2)CC1` [Example 39, (R)-2-((2-((1r,4R)-4-(Benzyloxy)cyclohexyl)propan-2-yl)amino)-1-(5-fluoropyridin-3-yl)ethan-1-ol], in test [1], the “Biological example 1: glucose uptake, activity compared to that of isoproterenol” value is given as “+ +”. For the same compound, the Emax at 10 µM in test [3] is less than 25%.
Taken in the same sequence, the figures for `CNS(=O)(=O)[C@H]1CC[C@H](CC(C)(C)NC[C@H](O)c2cncc(F)c2)CC1` [Example 191, (1R,4r)-4-(2-(((R)-2-(5-Fluoropyridin-3-yl)-2-hydroxyethyl)amino)-2-methylpropyl)-N-methylcyclohexane-1-sulfonamide dihydrochloride] were “+ +” and less than 25%.
Taken in the same sequence, the figures for `CC(C)(C[C@H]1CC[C@@H](NC(=O)C(F)(F)F)CC1)NC[C@H](O)c1cccc(F)c1` [Example 168, 2,2,2-Trifluoro-N-((1S,4s)-4-(2-(((R)-2-(3-Fluorophenyl)-2-hydroxyethyl)-amino)-2-methylpropyl)cyclohexyl)acetamide hydrochloride] were “+ + +” and less than 25%.
For `CC(=O)N[C@H]1CC[C@H](CC(C)(C)NC[C@H](O)c2cccc(C#N)n2)CC1` [Example 139, N-((1S,4r)-4-(2-(((S)-2-(6-Cyanopyridin-2-yl)-2-hydroxyethyl)amino)-2-methylpropyl)cyclohexyl)acetamide], the “Biological example 1: glucose uptake, activity compared to that of isoproterenol” value in test [1] was “+ + +”. Besides, the Emax at 10 µM in test [3] was in the range of 25 to 50%.
Turning to `O[C@@H](CNC[C@H]1CC[C@@H](O)CC1)c1cccc(F)c1` [Example 26, (1S,4s)-4-((((R)-2-(3-Fluorophenyl)-2-hydroxyethyl)amino)methyl)-cyclohexan-1-ol], the Emax at 10 µM in test [1] is 25 to 50%; in test [3] it was less than 25%.
Take `COC(=O)[C@H]1CC[C@@H](CCC(C)(C)NC[C@H](O)c2cccc(F)c2)CC1` [Example 111, Methyl (1S,4s)-4-(3-(((R)-2-(3-fluorophenyl)-2-hydroxyethyl)amino)-3-methylbutyl)cyclohexane-1-carboxylate]: in test [1], the “Biological example 1: glucose uptake, activity compared to that of isoproterenol” value is “+ + +”. For the same compound, the Emax at 10 µM in test [3] fell in the range of 25 to 50%.
On to `CC(C)(C[C@H]1CC[C@H](S(N)(=O)=O)CC1)NC[C@H](O)c1cccc(F)c1.Cl` [Example 194, (1R,4r)-4-(2-(((R)-2-(3-Fluorophenyl)-2-hydroxyethyl)amino)-2-methylpropyl)cyclohexane-1-sulfonamide hydrochloride], for which the “Biological example 1: glucose uptake, activity compared to that of isoproterenol” value in test [1] is “+ + +”. In test [3], the Emax at 10 µM is less than 25%.
Turning to `CC(C)(NC[C@H](O)c1cncc(F)c1)[C@H]1CC[C@H](N)CC1` [Example 79], the Emax at 10 µM in test [1] and in test [3] was less than 25% in each case.
Regarding `CO[C@H]1CC[C@@H](CNC[C@H](O)c2cncc(F)c2)CC1` [Example 2, (R)-1-(5-Fluoropyridin-3-yl)-2-((((1s,4S)-4-methoxycyclohexyl)-methyl)amino)ethan-1-ol], the “Biological example 1: glucose uptake, activity compared to that of isoproterenol” value in test [1] is recorded as “+ +”. For the same compound, the Emax at 10 µM in test [3] was less than 25%.
For the compound `CN([C@H]1CC[C@H](CC(C)(C)NC[C@H](O)c2cccc(F)c2)CC1)S(C)(=O)=O.Cl` [Example 179, N-((1R,4r)-4-(2-(((R)-2-(3-Fluorophenyl)-2-hydroxyethyl)amino)-2-methylpropyl)cyclohexyl)-N-methylmethanesulfonamide hydrochloride], the “Biological example 1: glucose uptake, activity compared to that of isoproterenol” value in test [1] is reported as “+ +”. For the same compound, the Emax at 10 µM in test [3] was less than 25%.
